A value given as a limit tells only on which side of the number the result lay.

Conditions in all cases: 72 h
For assay [1], the system named is MFM-223. The procedure: (§1)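 Drug sensitivity and resistance testing (DSRT) of breast cancer cell lines in 384-well plates, 5 concentrations in 10-fold dilutions over a compound-specific 10,000-fold range. After 72 h, cytotoxicity was read by CellTox Green fluorescence and viability by CellTiter-Glo luminescence (multiplexed), normalised to DMSO and benzethonium chloride controls. EC50 is the inflection point of the fitted dose-response curve (bottom asymptote free, so it can be relative for partial curves) and is censored at the highest tested concentration. Rows with DSS 0 (no meaningful response) were excluded.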

Assay [2] relates to MFM-223. A digest of the protocol: (§2)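 Two sequential readouts followed a 72 h incubation of breast cancer cell lines with compound at 5 concentrations in 10-fold steps over a compound-specific 10,000-fold range: CellTox Green fluorescence (485/520 nm) for cell death, then CellTiter-Glo luminescence, after 10 min at room temperature, for viability. Each plate was normalised to 0.1 % DMSO and a positive kill control. Dose-response curves were fitted for EC50, censored at the top concentration.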
The source holds these as a separate data set.

Assay [3] relates to HDQ-P1. A digest of the protocol:
(§3)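 The reported EC50 was fitted from percent-inhibition dose-response curves and censored at the highest concentration. Breast cancer cell lines (20 µl suspension) were added to 384-well plates containing compound in 5 µl medium and incubated 72 h, and viability was read with 2.5 µl CellTiter-Blue over 2 h at 37 °C at 560/590 nm. Each plate was normalised to vehicle and a positive kill control and checked by Z'-factor, and rows with zero drug sensitivity score were dropped.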

Assay [4] concerns CAL-148. As for the experimental part:
as §1

Assay [5] concerns HDQ-P1. As for the experimental part:
as §1
This is another data set of the same source.

The test system of assay [6] is MDA-MB-231. As for the experimental part: as §1
In assay [7] the test system is CAL-120. As for the experimental part: as §1
Assay [8] deals with BT-474. A digest of the protocol:
as §2

For another assay, the system named is HCC1937. A digest of the protocol:
as §2

In assay [9] the test system is DU-4475. A digest of the protocol:
as §2

Another assay relates to MDA-MB-468. A digest of the protocol: as §2
In assay [10] the test system is CAL-148. A digest of the protocol:
as §2
The source holds these as a separate data set.

The next assay relates to CAL-51. A digest of the protocol:
as §2

Assay [11] has as its system HDQ-P1. A digest of the protocol:
as §2
This is another data set of the same source.

The test system of assay [12] is MDA-MB-231. A digest of the protocol: as §2
This is another data set of the same source.

In assay [13] the test system is CAL-120. A digest of the protocol:
as §2
This is another data set of the same source.

Assay [14] has as its system MDA-MB-453. A digest of the protocol: as §2
In another assay the test system is BT-549. A digest of the protocol: as §2
The test system of assay [15] is BT-474. A digest of the protocol:
as §3
This is another data set of the same source.

For assay [16], the system named is MDA-MB-436. The procedure: as §1
Assay [17] has as its system MDA-MB-453. The procedure: as §1
The source holds these as a separate data set.

Assay [18] deals with MDA-MB-436. A digest of the protocol:
as §2
This is another data set of the same source.

For a further assay, the system named is HCC1599. A digest of the protocol: as §2
A further assay relates to CAL-85-1. A digest of the protocol: as §2
The subject of the next assay is Hs578T. A digest of the protocol: as §2
Assay [19] deals with DU-4475. The procedure: as §1
This is another data set of the same source.

For assay [20], the system named is MCF-10A. The procedure:
as §1

The subject of another assay is SK-BR-3. A digest of the protocol: as §2
The next assay relates to HCC1143. A digest of the protocol:
as §2

Assay [21] deals with MCF-10A. A digest of the protocol:
as §2
This is another data set of the same source.

On to `Cc1cc(Nc2nc(N[C@@H](C)c3ncc(F)cn3)ncc2Cl)[nH]n1` [AZD1480], for which the “EC50, CellTox Green” value with MFM-223 [1] was 0.872 µM. The “EC50, CellTiter-Glo” value in the assay on MFM-223 [2] was found to be 0.0946 µM.

As to `CC1(C)CCC(c2ccc(Cl)cc2)=C(CN2CCN(c3ccc(C(=O)NS(=O)(=O)c4ccc(N[C@H](CCN5CCOCC5)CSc5ccccc5)c(S(=O)(=O)C(F)(F)F)c4)cc3)CC2)C1` [Navitoclax], in the assay on HDQ-P1 [3], the “EC50, CellTiter-Blue viability” value came out at 0.0274 µM. Further, the “EC50, CellTox Green” value with CAL-148 [4] was 0.306 µM; in the assay with MFM-223 [1] it was 2.2 µM; with HDQ-P1 [5] it was 0.289 µM; in the assay on MDA-MB-231 [6], 0.162 µM; in the assay with CAL-120 [7], 0.884 µM. For the same molecule, the “EC50, CellTiter-Glo” value with BT-474 [8] was 1.68 µM; in the assay with HCC1937 it was over 10 µM; with DU-4475 [9], 2.99 µM; with MDA-MB-468, 0.0864 µM; in the assay with CAL-148 [10] it was 1 µM; with CAL-51, 1.26 µM. The “EC50, CellTiter-Glo” value in the assay with MFM-223 [2] is over 10 µM; in the assay with HDQ-P1 [11], 0.392 µM; with MDA-MB-231 [12] it was 0.774 µM; in the assay with CAL-120 [13], 3.9 µM; with MDA-MB-453 [14] it was 6.68 µM; in the assay with BT-549, over 10 µM.

For the molecule `C=CCN(/C=C1/C(=O)O[C@H](COC)[C@@]2(C)C1=C(O)C(=O)C1=C2[C@H](OC(C)=O)C[C@]2(C)C(=O)CC[C@@H]12)CC=C` [PX-866], the “EC50, CellTiter-Blue viability” value in the assay with HDQ-P1 [3] worked out at 2.17 µM; in the assay with BT-474 [15], 1.68 µM.

Turning to `CC[C@H](CO)Nc1nc(NCc2ccccc2)c2ncn(C(C)C)c2n1` [Seliciclib], the “EC50, CellTiter-Glo” value in the assay on CAL-51 was 0.595 µM.

For the molecule `CN(Cc1cnc2nc(N)nc(N)c2n1)c1ccc(C(=O)N[C@@H](CCC(=O)O)C(=O)O)cc1` [Methotrexate], the “EC50, CellTox Green” value in the assay with MDA-MB-436 [16] was 17.9 µM; in the assay with MDA-MB-453 [17], over 50 µM. Also, the “EC50, CellTiter-Glo” value in the assay with MDA-MB-436 [18] was 1.46 µM; in the assay with BT-474 [8], 7.23 µM; in the assay with HCC1937, 0.0204 µM; in the assay with CAL-51, 0.0196 µM; in the assay on HDQ-P1 [11] it was 0.0129 µM; in the assay with MDA-MB-231 [12], 6.84 µM. The “EC50, CellTiter-Glo” value with CAL-120 [13] was determined as 0.809 µM; in the assay with HCC1599 it was 17.8 µM; in the assay on CAL-85-1, 2.02 µM; in the assay on Hs578T it was 29 µM.

With `C=CCN(/C=C1/C(=O)O[C@H](COC)[C@@]2(C)C1=C(O)C(=O)C1=C2[C@H](OC(C)=O)C[C@]2(C)C(=O)CC[C@@H]12)CC=C` [Sonolisib], in the assay on CAL-51, the “EC50, CellTiter-Glo” value came to 0.39 µM.

`CCN(CC)CCCC(C)Nc1ccnc2cc(Cl)ccc12` (stereo not drawn) [Chloroquine]: the “EC50, CellTox Green” value was 5.41 µM in the assay with MDA-MB-436 [16]; 96.8 µM with DU-4475 [19]; 5.12 µM in the assay on CAL-148 [4]; 15.3 µM in the assay with MFM-223 [1]; 34.6 µM in the assay on HDQ-P1 [5]; 10.4 µM in the assay on MDA-MB-231 [6]. Besides, the “EC50, CellTox Green” value in the assay with CAL-120 [7] is 38.4 µM; in the assay on MDA-MB-453 [17] it was 13.4 µM; in the assay on MCF-10A [20] it was 20.4 µM. In addition, the “EC50, CellTiter-Glo” value in the assay with MDA-MB-436 [18] was found to be 16.3 µM; with BT-474 [8] it was 14.5 µM; in the assay on HCC1937 it was 15.3 µM; in the assay with DU-4475 [9], 18.7 µM; in the assay with SK-BR-3 it was 4.91 µM; in the assay on MDA-MB-468 it was 10.6 µM. In addition, the “EC50, CellTiter-Glo” value is 12.4 µM in the assay on CAL-148 [10]; 6.56 µM in the assay on CAL-51; 13.7 µM in the assay on MFM-223 [2]; 20.7 µM in the assay with HDQ-P1 [11]; 16.3 µM in the assay on MDA-MB-231 [12]; 9.49 µM in the assay with CAL-120 [13]. In addition, the “EC50, CellTiter-Glo” value came to 43.2 µM with HCC1143; 14.1 µM in the assay with HCC1599; 4.03 µM with MDA-MB-453 [14]; 15 µM in the assay with BT-549; 11.3 µM in the assay on CAL-85-1; 17.3 µM in the assay with MCF-10A [21]. In the assay on Hs578T, the “EC50, CellTiter-Glo” value was determined as 30.2 µM.

Take `Cc1cn(-c2cc(NC(=O)c3ccc(C)c(Nc4nccc(-c5cccnc5)n4)c3)cc(C(F)(F)F)c2)cn1` [Nilotinib]: the “EC50, CellTiter-Glo” value in the assay with CAL-51 is 0.0326 µM; in the assay with BT-549, over 10 µM.

As for `CN(C)C(=N)NC(=N)N` [Metformin], the “EC50, CellTiter-Glo” value in the assay on MDA-MB-468 was over 100 µM; in the assay on CAL-51, 0.36 µM.

For the origin of these results see the supplement of paper PMC4862054.
